Assay results reported in US11364280B2, “Method for blocking stress-induced tumor progression” (Taipei Veterans General Hospital, priority 2018, dated 2022).
No end group written: not given here.

Assays:
MSI1/AGO2 interaction [1] = target: T1, MSI1/AGO2 interaction (Homo sapiens, UniProt Q9UKV8); assay: Split Gaussia luciferase reconstitution reporter assay; format: cell-based; set-up: expressed in transfected cells; lysates used for the in vitro read-out; details: for effect on bioluminescent signal of split Gaussia luciferase: 10 μM peptide, in vitro and in vivo
T1 sequence (Q9UKV8 whole entry): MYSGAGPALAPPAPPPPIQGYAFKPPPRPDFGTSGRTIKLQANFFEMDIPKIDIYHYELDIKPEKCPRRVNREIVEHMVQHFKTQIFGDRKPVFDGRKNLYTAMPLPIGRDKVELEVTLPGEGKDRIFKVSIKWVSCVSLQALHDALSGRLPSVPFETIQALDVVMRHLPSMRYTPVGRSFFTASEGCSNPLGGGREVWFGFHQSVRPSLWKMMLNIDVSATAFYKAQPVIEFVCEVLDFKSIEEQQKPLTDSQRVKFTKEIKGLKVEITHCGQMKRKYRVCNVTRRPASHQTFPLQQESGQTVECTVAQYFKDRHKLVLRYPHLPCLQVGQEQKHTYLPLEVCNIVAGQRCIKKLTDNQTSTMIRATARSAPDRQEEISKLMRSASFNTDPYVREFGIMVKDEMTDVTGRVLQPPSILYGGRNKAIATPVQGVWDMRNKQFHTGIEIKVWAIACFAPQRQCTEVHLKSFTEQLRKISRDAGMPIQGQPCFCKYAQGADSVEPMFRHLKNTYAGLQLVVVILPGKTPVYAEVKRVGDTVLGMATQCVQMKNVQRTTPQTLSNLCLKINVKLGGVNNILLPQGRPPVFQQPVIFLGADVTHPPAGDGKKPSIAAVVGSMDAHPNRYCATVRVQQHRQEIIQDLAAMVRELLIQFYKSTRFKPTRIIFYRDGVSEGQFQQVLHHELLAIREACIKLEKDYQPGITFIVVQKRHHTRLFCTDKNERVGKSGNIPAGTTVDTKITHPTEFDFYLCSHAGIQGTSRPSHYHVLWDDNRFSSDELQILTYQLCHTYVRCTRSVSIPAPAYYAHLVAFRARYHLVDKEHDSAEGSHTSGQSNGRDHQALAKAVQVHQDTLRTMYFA
Procedure: (§1) The relative orientation of peptide-binding site and AGO2 pocket was depicted. […] The recombinant AGO2 protein was immobilized on CM5 chip and incubated with a serial dilution (from 625 to 10000 nM) of the two peptides, respectively. The association and dissociation between TAT-11, TAT-26 and immobilized AGO2 were tested by SPR (top). The association rate constant (Ka), dissociation rate constant (Kd), and equilibrium dissociation constant (KD) were calculated and presented in the chart (bottom).
FIG. 14A provides schematic presentation of the constructs of full-length, C-terminus, and N-terminus of MSI1 as well as wild-type AGO2 for purifying recombinant proteins. FIG. 14B provides pull-down assay with recombinant MSI1 and AGO2 proteins showing that the C-terminus of MSI1 is essential for the direct MSI1/AGO2 interaction. […] FIG. 14D provides the schematic illustration of the split luciferase reconstitution imaging system to real-time monitor the interaction between MSI1 and AGO2.
To use Gaussia luciferase (Gluc) for detecting protein-protein interaction, we split Gaussia luciferase into NGluc (N-terminal Gluc, 106 a.a.) and CGluc (C-terminal Glue. 79 a.a.)^53,54. The two fragments were amplified by polymerase chain reaction (PCR) and subjected to construct fusion protein with MSI1 and AGO2 by the pcDNA 3.1 and pCMV backbone, respectively. Each fusion protein contains a flexible linker (GGGGS)2 between the protein and polypeptides of split luciferase^55,56. Stable cell lines were obtained by stable transfection of both fusion protein expressive plasmids in 05 MG GBM cell line with Hygromycin B (Sigma Aldrich Co., St. Louis, […]., USA) and G418 sulfate (Merck Co., Berlin, Germany). […] The bioluminescent signals were acquired by Wallac 1420 Victor^2 Microplate Reader (Perkin Elmer, Waltham. Mass., USA) equipped with auto-dispenser to avoid rapid decay of GLuc. […] The region of interests (ROI) was automatically chosen by the Living Image 4.2 software and quantified as photon flux in a certain area per second (photons/s/cm^2).

[2] = system: MSI1/AGO2 downstream mRNA; assay: qRT-PCR of downstream mRNA targets of MSI1-AGO2, hypoxia versus normoxia; format: cell-based, human; details: six targets
Procedure: FIG. 4A provides a schematic illustrating the full-length and C-terminal (C-term) fragment of human MSI1. The construct of MSI1 C-term was sub-cloned into p-3×Flag-Myc-CMV expression vector. […] Quantification of the fold changes of binding signals was performed by normalizing IP signals to IgG-precipitated controls. The peaks indicated MSI1 or AGO2 palindromic-binding sequence. […] Purified total RNA was subjected to RT-PCR using primers specific for NF2, TP53, CDKN1A, CCND1, CDK4, and HELLS. The mRNA levels under hypoxia were normalized with that under normoxia and presented as relative fold changes in the chart. […] The relative fold change of the number of viable cells in each day was presented in the graph. […] Xenograft tumor size was monitored from day 2 after injection of Flag-control or Flag-C-term. […] Tumor size was then monitored for 22 days. The expression of MIS1-C-term in the xenograft tumor tissue was assessed by Western blot. […] […]
Oligonucleotide specificity was computer tested (BLAST, National Center for Biotechnology Information. Bethesda. Md., USA) by homology search with the human genome and later confirmed by melting curve analysis. […] Signals were detected using 7900HT Fast Real-time PCR system (Applied Biosystems, Foster City, Calif., USA). […]

05 MG cells = assay: Cellular uptake of fluorescein labeled peptides, fluorescence read by ELISA reader; details: for time to significant cellular uptake: 05 MG cells; for EC50: read-out: half-uptake concentration (EC50), fluorescein labeled peptides, 05 MG cell line
Procedure: The biological activity of peptides was tested in 05 MG cell line. The cells were treated with different concentration of fluorescein labeled peptides and was measured using ELISA reader.
(§2) After 0.5, 1, 2, 4 and 6 hours, cell lysates were collected and the fluorescent intensity was detected by ELISA reader. N=3 at each time point. […] Cells were washed and observed under microscopy at the indicated time points. […] To facilitate comparison of intake and degradation dynamics, mean fluorescence values were normalized to stating fluorescence. All data represent three independent experiments.

[3] = target: T2, His-tagged AGO2 recombinant protein (Homo sapiens, UniProt Q9UKV8); assay: Affinity measurement by surface plasmon resonance (SPR); format: binding; details: AGO2 immobilized on CM5 chip; peptide serial dilution 625 to 10000 nM; Langmuir 1:1 model; read-out: equilibrium dissociation constant (KD)
T2 construct: made in house; host or cells: High Five insect cells (baculovirus, Bac-To-Bac; virus made in Sf9)
T2 sequence (Q9UKV8 whole entry): as above
Procedure: as §1
A Biacore T200 (GE Healthcare) was used to study the binding affinity of the TAT-11 and TAT-26 peptides with recombinant His-tagged AGO2 protein. The recombinant His-AGO2 and TAT peptides were diluted in HBS-P buffer ([…], 150 mM NaCl and 0.005% P20, pH 7.4). To evaluate the binding affinity, recombinant His-AGO2 was immobilized on a CM5 sensor chip (GE Healthcare, BR100012) via amine coupling (˜7000 RU) for 3600 sec at rate of 5 μl/mins, followed by dissociation for 600 s. After injection of each peptide, the surface was regenerated with an injection of 10 mM NaOH. All sensorgrams were double referenced by subtracting the surface effect from the control flow […] and the buffer effect form the blank buffer. The kinetic values Ka, Kd and KD were obtained using Biacore […] Evaluation Software (GE healthcare) assuming the Langmuir 1:1 binding model.

MSI1/AGO2 interaction [4] = target: T1, MSI1/AGO2 interaction; assay: Co-immunoprecipitation of endogenous MSI1 and AGO2 under hypoxia; format: cell-based; set-up: endogenous in cells; details: 10 μM peptide, hypoxic condition
in vitro = details: human
Procedure: as §2

[5] = system: MSI1 translocation into the cytosol in 05 MG cells; assay: MSI1 subcellular translocation (immunostaining, fractionation immunoblot); format: cell-based, human; details: cisplatin 30 μM, 24 hours
Procedure: Magnifying power: 200× (top) and 600× (bottom). Quantitation of cells expressing cytoplasmic or nuclear MSI1 is shown in the bar graph on the right. FIG. 1B 05 MG cells pre-treated with or without nuclear export inhibitor leptomycinB (LMB) (10 ng/mL, 2 h) under normoxia or hypoxia conditions for 24 hr were subjected to anti-MSI1 (green) immunostaining and DAPI (blue) nuclear counterstaining. Images were acquired from Carl Zeiss confocal microscope system. The intensity of green fluorescence in nuclear and cytosol was quantified and shown as relative percentage in the graph at the right. […] FIG. 1D provides a schematic showing the mutation sites in the NLS (orange) and NES (red) of human MSI1. All constructs were sub-cloned into p-3×Flag-Myc-CMV expression vector. […] Images were acquired from Carl Zeiss confocal microscope system, and the quantification of fluorescent intensity in the nuclear and cytosolic compartments was shown as relative percentage in the graph at the left. […] Tumor size was measure with a caliper at the indicated time points. […] The tumor size was measured with a caliper at the indicated time points. […]
The ratio of MSI1 expression in each group was presented in the graph. […] Hypoxia-induced apoptosis was withdrawn by the over-expression of wild-type MSI1 but not in mutant MSI1 groups determined by annexin V staining, MTT assay, and colony forming assay. […]

05 MG/MSI1-wt xenografts = assay: Cisplatin treatment of subcutaneous xenografts overexpressing MSI1-wt; format: in vivo, mice; details: 477.437 mm^3 without cisplatin
Procedure: Magnifying power: 200× (top) and 600× (bottom). Quantitation of cells expressing cytoplasmic or nuclear MSI1 is shown in the bar graph on the right. FIG. 1B 05 MG cells pre-treated with or without nuclear export inhibitor leptomycinB (LMB) (10 ng/mL, 2 h) under normoxia or hypoxia conditions for 24 hr were subjected to anti-MSI1 (green) immunostaining and DAPI (blue) nuclear counterstaining. Images were acquired from Carl Zeiss confocal microscope system. The intensity of green fluorescence in nuclear and cytosol was quantified and shown as relative percentage in the graph at the right. […] FIG. 1D provides a schematic showing the mutation sites in the NLS (orange) and NES (red) of human MSI1. All constructs were sub-cloned into p-3×Flag-Myc-CMV expression vector. […] Images were acquired from Carl Zeiss confocal microscope system, and the quantification of fluorescent intensity in the nuclear and cytosolic compartments was shown as relative percentage in the graph at the left. […] Tumor size was measure with a caliper at the indicated time points. […] Images were acquired from Carl Zeiss confocal microscope system. […] The tumor size was measured with a caliper at the indicated time points. […]
All procedures involving animals were performed in accordance with the institutional animal welfare guidelines of Taipei Veterans General Hospital. […] Tumor size was measured with calipers^38. […]

Compound	effect on bioluminescent signal of split Gaussia luciferase (MSI1/AGO2 interaction [1])	effect of MSI1/AGO2 binding on downstream mRNA [2]	time to significant cellular uptake (05 MG cells)	EC50 (05 MG cells)	Kd [3]	effect on MSI1/AGO2 interaction (co-IP immunoblot) (MSI1/AGO2 interaction [4])	half-life (in vitro)	bioluminescent signal of split Gaussia luciferase (MSI1/AGO2 interaction [1]; in the presence of cisplatin, IVIS)	translocation of MSI1 in 05 MG cells [5]	tumor volume at day 22 (05 MG/MSI1-wt xenografts)
HSLGGPLIATAFTNGGRKKRRQRRRPPQ [TAT-26]	dramatically turned down the bioluminescent signal in vitro and in vivo	reversed	within one hour	9.02 µM	4.63 µM	effectively abrogated the MSI1/AGO2 interaction	≤ 4 h	–	–	–
YQFPEFRVERTPLPSGRKKRRQRRRPPQ [TAT-11]	dramatically turned down the bioluminescent signal in vitro and in vivo	reversed	within one hour	9.1 µM	3.33 µM	effectively abrogated the MSI1/AGO2 interaction	≤ 4 h	–	–	–
N.N.[Cl][Pt][Cl] [cisplatin]	–	–	–	–	–	–	–	increase of the bioluminescent signal	induced	774.365 mm^3
